Our source for the IC50 values is patent US11981680B2, “Substituted thienopyrroles as PAD4 inhibitors” (BRISTOL-MYERS SQUIBB COMPANY, priority 2018, dated 2024).

Usually IC50 stands for the point on the concentration scale where inhibition reaches its midpoint.

The experiment addresses human PAD4 (hPAD4) (Homo sapiens (Human), UniProt Q9UM07). Nature of the experiment: RFMS Human PAD4 Functional Assay. Type of experiment: biochemical. Conditions: rapid-fire mass spectrum (RFMS) assay; 5 nM hPAD4 enzyme, 250 μM BAEE, 30 min preincubation at 37° C. The procedure:
Compounds of the present invention were assayed as inhibitors of PAD4 using the assay protocol described below.
RFMS Human PAD4 Functional Assay:
Compounds were solubilized in 100% DMSO to achieve a10 mM compound concentration. Compound stock solutions were stored at RT. A series of dilutions were prepared in DMSO and mixed 8 times with 20 μL mixing volume. Final top concentration of compound in the assay is 50 μM. Final assay conditions were as follows: • Reaction volume: 26 μl • Assay buffer: 25 mM hepes, pH 7.5, 5 mM NaCl, 1 mM DTT, 0.2 mg/ml BSA, 0.01% CHAPS, 50 μM Calcium, and 5 μM TPEN • Final concentrations: 5 nM hPAD4 enzyme, 250 μM BAEE, and 0.5% DMSO • Total incubation time: 30 mins compound and enzyme preincubation at 37° C., 90 min enzyme/substrate reaction, 30 min reaction with phenyl glyoxal at 37° C. • Stop solution: 40 μl 5% TCA in ACN
0.13 μL of compound solution was added to 13 μL of 10 nM PAD4 in assay buffer. After 30 min 13 μl of 500 μM of BAEE was added in 25 mM hepes, pH 7.5, 5 mM NaCl, 1 mM DTT, 0.2 mg/ml BSA, 0.01% CHAPS, 50 μM Calcium, 5 μM TPEN was added and the reaction incubated for 90 min at 37° C. The enzymatic reaction was quenched by addition of 15 μl of 6.1N TCA, 100% Final Concentration is 20%, 35 μl of 8.5 mM phenyl glyoxal (final concentration 4 mM) is then added and the reaction is incubated for 30 min at 37° C.
After 30 minutes the plates are spun down to remove all precipitate. The enzyme reaction was quenched with an equal volume of methanol containing internal standard (modified citrulline). Samples were loaded onto the Rapid Fire RF300 system (Agilent) wherein they were first sipped for 1000 ms and then directly loaded to a C18 separations cartridge using a mixture of acetonitrile containing 0.01% formic acid for 3000 ms desalting. The flow rate of the mobile phase was 1.5 ml/min. Once the samples were eluted from the cartridge, a mobile phase of acetonitrile containing 0.01% formic acid was used to move the samples into the mass spectrometer for 4000 ms at a flow rate of 1.25 ml/min/Sciex API5500 triple quadrupole mass spectrometer (Applied Biosystems) equipped with ESI was used to analyze the peptidyl citrulline and internal standard ions.
MRM transition of product and internal standard were monitored at m/z 424.5 to 350.4 and m/z 293 to 247 respectively. The dwell time for each transition was set at 200 ms, and the ESI voltage was used at 5500 with a source temperature of 400° C. Extracted ion peaks for each transition were integrated using the Rapid Fire Integrator software. Peak area of analyte was normalized with internal standard.).

human PAD4 (hPAD4), sequence (Q9UM07 whole entry): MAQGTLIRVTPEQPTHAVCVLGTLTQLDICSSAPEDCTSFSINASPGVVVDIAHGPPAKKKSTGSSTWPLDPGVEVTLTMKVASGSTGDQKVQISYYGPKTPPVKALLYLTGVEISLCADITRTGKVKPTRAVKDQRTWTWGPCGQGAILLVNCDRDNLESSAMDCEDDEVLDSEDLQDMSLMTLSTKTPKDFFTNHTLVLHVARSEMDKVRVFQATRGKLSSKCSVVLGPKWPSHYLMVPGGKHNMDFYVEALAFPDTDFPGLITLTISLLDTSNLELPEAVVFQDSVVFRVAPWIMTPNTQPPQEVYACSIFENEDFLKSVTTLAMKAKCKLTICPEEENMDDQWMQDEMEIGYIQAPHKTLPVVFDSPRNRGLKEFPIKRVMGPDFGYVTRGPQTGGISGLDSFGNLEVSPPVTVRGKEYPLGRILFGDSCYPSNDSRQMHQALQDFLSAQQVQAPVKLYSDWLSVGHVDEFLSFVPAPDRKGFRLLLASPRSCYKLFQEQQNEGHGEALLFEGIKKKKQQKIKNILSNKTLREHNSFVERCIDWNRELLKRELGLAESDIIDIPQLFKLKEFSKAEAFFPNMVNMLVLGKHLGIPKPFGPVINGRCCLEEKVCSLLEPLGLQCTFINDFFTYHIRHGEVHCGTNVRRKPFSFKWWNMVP

In turn, `COc1cc(C(=O)N2C[C@H]3CC[C@@H]2[C@@H]3N)cc2nc(-c3cc4scc(C5CCOC5)c4n3CC3CC3)n(C)c12` (stereo partly drawn) [Example 12, ((1R,4R,7R)-7-amino-2-azabicyclo[2.2.1]heptan-2-yl)(2-(4-(cyclopropylmethyl)-3-(tetrahydrofuran-3-yl)-4H-thieno[3,2-b]pyrrol-5-yl)-7-methoxy-1-methyl-1H-benzo[d]imidazol-5-yl)methanone] came in with an IC50 of 49 nM.

`COc1cc(C(=O)N2C[C@H]3CC[C@@H]2[C@@H]3N)cc2nc(-c3cc4scc(CCC(N)=O)c4n3CC3CC3)n(C)c12` [Example 11, 3-(5-(5-((1R,4R,7R)-7-amino-2-azabicyclo[2.2.1]heptane-2-carbonyl)-7-methoxy-1-methyl-1H-benzo[d]imidazol-2-yl)-4-(cyclopropylmethyl)-4H-thieno[3,2-b]pyrrol-3-yl)propanamide] registered an IC50 of 47 nM.

In turn, `COc1cc(C(=O)N2C[C@H]3CC[C@@H]2[C@@H]3N)cc2nc(-c3cc4scc(-c5ccc[nH]5)c4n3CC3CC3)n(C)c12` [Example 46, ((1R,4R,7R)-7-amino-2-azabicyclo[2.2.1]heptan-2-yl)(2-(4-(cyclopropylmethyl)-3-(1H-pyrrol-2-yl)-4H-thieno[3,2-b]pyrrol-5-yl)-7-methoxy-1-methyl-1H-benzo[d]imidazol-5-yl)methanone] displayed a half-maximal inhibitory concentration (IC50) of 173 nM.

On to `COc1cc(C(=O)N2C[C@H]3CC[C@@H]2[C@@H]3N)cc2nc(-c3cc4scc(-c5ccc(O)c(F)c5)c4n3CC3CC3)n(C)c12` [Example 36, ((1R,4R,7R)-7-amino-2-azabicyclo[2.2.1]heptan-2-yl)(2-(4-(cyclopropylmethyl)-3-(3-fluoro-4-hydroxyphenyl)-4H-thieno[3,2-b]pyrrol-5-yl)-7-methoxy-1-methyl-1H-benzo[d]imidazol-5-yl)methanone], for which the IC50 was determined as 59 nM.

Take `COc1cc(C(=O)N2C[C@H]3CC[C@@H]2[C@@H]3N)cc2nc(-c3cc4sc(C)cc4n3CC3CC3)n(C)c12` [Example 27, ((1R,4R,7R)-7-amino-2-azabicyclo[2.2.1]heptan-2-yl)(2-(4-(cyclopropylmethyl)-2-methyl-4H-thieno[3,2-b]pyrrol-5-yl)-7-methoxy-1-methyl-1H-benzo[d]imidazol-5-yl)methanone]: half-maximal inhibition (IC50) was put at 62 nM.

`COc1cc(C(=O)N2C[C@H]3CC[C@@H]2[C@@H]3N)cc2nc(-c3cc4scc(-c5cnn(C)c5)c4n3CC3CC3)n(C)c12` [Example 32, ((1R,4R,7R)-7-amino-2-azabicyclo[2.2.1]heptan-2-yl)(2-(4-(cyclopropylmethyl)-3-(1-methyl-1H-pyrazol-4-yl)-4H-thieno[3,2-b]pyrrol-5-yl)-7-methoxy-1-methyl-1H-benzo[d]imidazol-5-yl)methanone] returned an IC50 of 17 nM.

In turn, `COc1cc(C(=O)N2C[C@H]3CC[C@@H]2[C@@H]3N)cc2nc(-c3cc4scc(C5CCN(C(C)=O)CC5)c4n3CC3CC3)n(C)c12` [Example 4, 1-(4-(5-(5-((1R,4R,7R)-7-amino-2-azabicyclo[2.2.1]heptane-2-carbonyl)-7-methoxy-1-methyl-1H-benzo[d]imidazol-2-yl)-4-(cyclopropylmethyl)-4H-thieno[3,2-b]pyrrol-3-yl)piperidin-1-yl)ethan-1-one] had a 50% inhibitory concentration (IC50) of 14 nM.

Take `COc1cc(C(=O)N2C[C@H]3CC[C@@H]2[C@@H]3N)cc2nc(-c3cc4scc(C5CN(C(C)=O)C5)c4n3CC3CC3)n(C)c12` [Example 23, 1-(3-(5-(5-((1R,4R,7R)-7-amino-2-azabicyclo[2.2.1]heptane-2-carbonyl)-7-methoxy-1-methyl-1H-benzo[d]imidazol-2-yl)-4-(cyclopropylmethyl)-4H-thieno[3,2-b]pyrrol-3-yl)azetidin-1-yl)ethan-1-one]: the midpoint of inhibition, the IC50, lay at 55 nM.

`COc1cc(C(=O)N2C[C@H](N)C[C@@H](F)C2)cc2nc(-c3cc4sc(C)cc4n3CC3CC3)n(C)c12` [Example 28, ((3R,5R)-3-amino-5-fluoropiperidin-1-yl)(2-(4-(cyclopropylmethyl)-2-methyl-4H-thieno[3,2-b]pyrrol-5-yl)-7-methoxy-1-methyl-1H-benzo[d]imidazol-5-yl)methanone]: the midpoint of inhibition, the IC50, lay at 67 nM.

`COc1cc(C(=O)N2C[C@H]3CC[C@@H]2[C@@H]3N)cc2nc(-c3cc4scc(C5CC(O)C5)c4n3CC3CC3)n(C)c12` (mixture of isomers) [Example 7, cis/trans-((1R,4R,7R)-7-amino-2-azabicyclo[2.2.1]heptan-2-yl)(2-(4-(cyclopropylmethyl)-3-(3-hydroxycyclobutyl)-4H-thieno[3,2-b]pyrrol-5-yl)-7-methoxy-1-methyl-1H-benzo[d]imidazol-5-yl)methanone] displayed an IC50 of 34 nM.

Compound `COc1cc(C(=O)N2C[C@H]3CC[C@@H]2[C@@H]3N)cc2nc(-c3cc4scc(C5CCNCC5)c4n3CC3CC3)n(C)c12` [Example 3, ((1R,4R,7R)-7-amino-2-azabicyclo[2.2.1]heptan-2-yl)(2-(4-(cyclopropylmethyl)-3-(piperidin-4-yl)-4H-thieno[3,2-b]pyrrol-5-yl)-7-methoxy-1-methyl-1H-benzo[d]imidazol-5-yl)methanone] yielded an IC50 of 12 nM.

`COc1cc(C(=O)N2C[C@H]3CC[C@@H]2[C@@H]3N)cc2nc(-c3cc4sc(-c5cn[nH]c5)cc4n3CC3CC3)n(C)c12` [Example 26, ((1R,4R,7R)-7-amino-2-azabicyclo[2.2.1]heptan-2-yl)(2-(4-(cyclopropylmethyl)-2-(1H-pyrazol-4-yl)-4H-thieno[3,2-b]pyrrol-5-yl)-7-methoxy-1-methyl-1H-benzo[d]imidazol-5-yl)methanone] came in with an IC50 of 107 nM.

Turning to `COc1cc(C(=O)N2C[C@H]3CC[C@@H]2[C@@H]3N)cc2nc(-c3cc4scc(-c5cccs5)c4n3CC3CC3)n(C)c12` [Example 38, ((1R,4R,7R)-7-amino-2-azabicyclo[2.2.1]heptan-2-yl)(2-(4-(cyclopropylmethyl)-3-(thiophen-2-yl)-4H-thieno[3,2-b]pyrrol-5-yl)-7-methoxy-1-methyl-1H-benzo[d]imidazol-5-yl)methanone], the midpoint of inhibition, the IC50, lay at 100 nM.

The compound `COc1cc(C(=O)N2C[C@H]3CC[C@@H]2[C@@H]3N)cc2nc(-c3cc4scc(-c5ccnn5C)c4n3CC3CC3)n(C)c12` [Example 45, ((1R,4R,7R)-7-amino-2-azabicyclo[2.2.1]heptan-2-yl)(2-(4-(cyclopropylmethyl)-3-(1-methyl-1H-pyrazol-5-yl)-4H-thieno[3,2-b]pyrrol-5-yl)-7-methoxy-1-methyl-1H-benzo[d]imidazol-5-yl)methanone] gave an IC50 of 53 nM.

With `COc1cc(C(=O)N2C[C@H](N)C[C@@H](F)C2)cc2nc(-c3cc4scc(Br)c4n3CC3CC3)n(C)c12` [Example 31, ((3R,5R)-3-amino-5-fluoropiperidin-1-yl)(2-(3-bromo-4-(cyclopropylmethyl)-4H-thieno[3,2-b]pyrrol-5-yl)-7-methoxy-1-methyl-1H-benzo[d]imidazol-5-yl)methanone], 60 nM corresponded to half-maximal inhibition (IC50).

`COc1cc(C(=O)N2C[C@H]3CC[C@@H]2[C@@H]3N)cc2nc(-c3cc4sc(-c5ccncc5)cc4n3CC3CC3)n(C)c12` [Example 25, ((1R,4R,7R)-7-Amino-2-azabicyclo[2.2.1]heptan-2-yl)(2-(4-(cyclopropylmethyl)-2-(pyridin-4-yl)-4H-thieno[3,2-b]pyrrol-5-yl)-7-methoxy-1-methyl-1H-benzo[d]imidazol-5-yl)methanone] returned an IC50 of 179 nM.

`COc1cc(C(=O)N2C[C@H]3CC[C@@H]2[C@@H]3N)cc2nc(-c3cc4scc(-c5ccc(O)c(Cl)c5)c4n3CC3CC3)n(C)c12` [Example 35, ((1R,4R,7R)-7-amino-2-azabicyclo[2.2.1]heptan-2-yl)(2-(3-(3-chloro-4-hydroxyphenyl)-4-(cyclopropylmethyl)-4H-thieno[3,2-b]pyrrol-5-yl)-7-methoxy-1-methyl-1H-benzo[d]imidazol-5-yl)methanone] had an IC50 of 150 nM.
